Columns and labels:
[1] = biological target: T1, UvrB (Δ594-658, domains 1a-3) ([Bacillus] caldotenax, UniProt P56981, C145S/C211S/T251C/C303S); assay: X-ray crystal structure (UvrB-dsDNA-ADP·Pi); details: crystals grown with 2 mM ATP and 5 mM MgCl2, pH 6.5, 20 °C; protein disulfide-crosslinked to 20-mer dsDNA; ATP binding site; 2.6 Å
T1 construct: residues 1-593 (domain 4 deleted, Δ594-658), all native Cys to Ser, His-tag cleaved with TEV protease, expressed in E. coli BL21(DE3) pLysS, disulfide-crosslinked to duplex DNA

[2] = biological target: T1, UvrB (Δ594-658, domains 1a-3); assay: ATP hydrolysis in crystallo, seen in crystal structure; type: biochemical; details: 2 mM ATP, 5 mM MgCl2, pH 6.5, 20 °C; protein disulfide-crosslinked to 20-mer dsDNA

T1 sequence (P56981 1-593 C145S/C211S/T251C/C303S): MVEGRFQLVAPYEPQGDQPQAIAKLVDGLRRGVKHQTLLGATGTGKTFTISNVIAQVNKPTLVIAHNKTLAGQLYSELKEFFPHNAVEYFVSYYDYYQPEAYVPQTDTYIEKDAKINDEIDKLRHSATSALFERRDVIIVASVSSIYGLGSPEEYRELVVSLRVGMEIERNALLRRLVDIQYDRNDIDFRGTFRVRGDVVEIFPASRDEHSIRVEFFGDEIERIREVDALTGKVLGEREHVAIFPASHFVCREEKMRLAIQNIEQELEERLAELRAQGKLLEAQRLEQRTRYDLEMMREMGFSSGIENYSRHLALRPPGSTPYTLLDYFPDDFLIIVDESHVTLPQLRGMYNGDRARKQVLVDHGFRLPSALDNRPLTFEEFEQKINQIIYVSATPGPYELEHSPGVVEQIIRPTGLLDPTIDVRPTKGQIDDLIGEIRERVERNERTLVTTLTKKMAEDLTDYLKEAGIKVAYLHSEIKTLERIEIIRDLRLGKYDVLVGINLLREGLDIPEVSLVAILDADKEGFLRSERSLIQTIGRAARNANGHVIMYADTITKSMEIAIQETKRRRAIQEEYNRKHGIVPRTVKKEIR

Q: For `Nc1ncnc2c1ncn2[C@@H]1O[C@H](COP(=O)(O)OP(=O)(O)O)[C@@H](O)[C@H]1O` [ADP], which “X-ray crystal structure (UvrB-dsDNA-ADP.Pi)” value [1] is on record?
A: The value was “the electron density corresponds to ADP plus inorganic phosphate”.

Q: Which “ATP hydrolysis in crystallo, seen in crystal structure” value [2] does the source give for `Nc1ncnc2c1ncn2[C@@H]1O[C@H](COP(=O)(O)OP(=O)(O)OP(=O)(O)O)[C@@H](O)[C@H]1O` [ATP] here?
A: The value was “hence we conclude that the ATPase site retains activity in our crosslinked complex”.

— article PMC6750098, “Mechanism of DNA Lesion Homing and Recognition by the Uvr Nucleotide Excision Repair System” (Research, 2019)
